Laboratory results published in patent publication US20060004191A1, “Modified sodium iodide symporter proteins and genes for imaging and cancer therapy” (priority 2002, published 2006).
Entries after “also recorded” stand apart in the source; their conditions may differ.

Key:
F98/hNIS gliomas [1] = assay: 99mTcO4 scintigraphy of intracerebral F98/hNIS gliomas; type: in vivo, rat; conditions: about 20 min after tail vein injection
Description: (§1) Fischer rats weighing 175 to 200 grams (Harlan Sprague Dawley, Indianapolis, Ind.) were stereotactically implanted with tumor cells.^11,21 The tumor cells were either F98 cells or F98 cells which had been infected with and expressed a wild-type NIS protein (see Example 1). All experimental procedures received approval from Institutional Laboratory Animal Care and Use Committee of the Ohio State University. Briefly, rats were sedated by intraperitoneal (i.p.) administration of 120 mg of ketamine/20 mg of xylazine (Fort Dodge, Fort Dodge, IA) per kg of body weight, after which a plastic screw (Arrow Machine Manufacturing, Inc., Richmond, VA) was embedded into the cranium. F98 cells were injected within 10 to 15 seconds through a central hole in the plastic screw into the right hemisphere at a concentration of 10^3 (for therapeutic study) or 10^5 (for imaging study) cells in 10 μl of serum-free DMEM containing 1.4% agarose with a gelling temperature of <30° C. The screw hole was filled with bone wax immediately following withdrawal of the needle, and the operative field was flushed with betadine before the scalp incision was closed with a single sterilized clip.
(§2) Rats were anesthetized by i.p. injection of ketamine/xylazine, and then 2.0 mCi of ^99mTcO4 in 0.2 ml volume was administered via tail vein injection. […]

parental F98 tumors = assay: 99mTcO4 scintigraphy of intracerebral parental F98 tumors; type: in vivo, rat; conditions: about 20 min after tail vein injection
Description: as §1, §2

[2] = serial 123I scintigraphy, radioiodide retention in thyroid; type: in vivo, rat; conditions: in the thyroid, from time activity curve, tail vein injection
Description: (§3) Serial ^123I images were obtained to determine the retention of radioiodide in the hNIS-transduced tumors (FIG. 7A). The average survival time for rats implanted with 10^5 F98/hNIS glioma cells was about 14-16 days. For studies of ^123I retention, images were acquired on days 13 to 15 following tumor implantation at which time ^123I (0.25 mCi) was administered via tail vein injection. Modified conjugate images were obtained sequentially with the rat first in dorsal-ventral and then ventral-dorsal positions on the top of the LEUHR collimator at 5 min, 20 min, 1 hr, 4 hr, 24 hr, and 37 hr following injection. The acquisition time at 5 min post-injection image was 5 min, and the acquisition times at subsequent time points were corrected for the physical decay of ^123I. Regions of interest (ROI) were drawn over the tumor, thyroid, and shoulder region (as a background) in two views (vertex and then ventral) of pinhole images for each different time point, and the geometric means of the count rates (counts/pixel) for each ROI in each view were calculated. Biological half-life of radioiodine was estimated based on the time activity curve generated by plotting the tumor ROI count rates versus time.

F98/hNIS gliomas [3] = assay: serial 123I scintigraphy, radioiodide retention in tumor; type: in vivo, rat
Description: as §1
as §3, with “The acquisition time at 5 min post-injection image was 5 min, and the acquisition times at subsequent time points were corrected for the physical decay of ^123I.” left out, “Biological half-life of radioiodine was estimated based on the time activity curve generated by plotting the tumor ROI count rates versus time.” left out

F98/hNIS tumors = assay: 131I therapy study, intracerebral hNIS-transduced tumors; type: in vivo, rat
Description: as §1
For ^131I therapy studies, rats were implanted stereotatically with 1×10^3 F98 cells on day 0, and the animals were divided into 3 groups: empty vector transduced tumors with ^131I treatment (F98/LXSN+^131I), hNIS transduced tumors without ^131I treatment (F98/hNIS—^131I), hNIS transduced tumors with ^131I treatment (F98/hNIS+^131I). Each group contained 12 rats. To minimize exposure of the thyroid gland to ^131I, rats were placed on 1 ppm thyroxine (T4)-supplemented diet (Harlan Teklad, Madison, Wis.) beginning one week prior to the first day of ^131I treatment. Animals received three i.p. injections, 4 mCi of ^131I per injection, on days 12, 14 and 16 post-implantation for a total of 12 mCi. The tumor size index on day 14 was assumed to be ˜2 mm^2 based on a previous study.^18 Animals were weighed three times per week. […] Therefore, animals displaying these signs were sacrificed, and survival times were determined from the day of tumor implantation to the day of sacrifice plus 1 day.^21,24 The observers were not blinded to sacrifice the rats. To confirm that all animals had progressively growing tumors at the time of death, the brains were removed, fixed in 10% neutral buffered formalin, and then 2-mm coronal sections were cut with a rat brain slicer (Zivic-Miller Laboratories, Inc., Allison Park, PA), and processed for routine histopathological examination. Tumor size was measured as (the longest length)×(the length perpendicular to the longest length) in tumor sections. Survival among different experimental groups was compared using unpaired t test as well as Log-rank test. Tumor sizes among different experimental groups were compared using unpaired t test. The P value of <0.05 were considered statistically significant.

F98/LXSN tumors = assay: 131I therapy study, intracerebral empty vector transduced tumors; type: in vivo, rat
Description: as §1
For ^131I therapy studies, rats were implanted stereotatically with 1×10^3 F98 cells on day 0, and the animals were divided into 3 groups: empty vector transduced tumors with ^131I treatment (F98/LXSN+^131I), hNIS transduced tumors without ^131I treatment (F98/hNIS—^131I), hNIS transduced tumors with ^131I treatment (F98/hNIS+^131I). Each group contained 12 rats. To minimize exposure of the thyroid gland to ^131I, rats were placed on 1 ppm thyroxine (T4)-supplemented diet (Harlan Teklad, Madison, Wis.) beginning one week prior to the first day of ^131I treatment. […] Therefore, animals displaying these signs were sacrificed, and survival times were determined from the day of tumor implantation to the day of sacrifice plus 1 day.^21,24 The observers were not blinded to sacrifice the rats. […] Tumor size was measured as (the longest length)×(the length perpendicular to the longest length) in tumor sections. […]

hNIS = target: T1, hNIS (Homo sapiens, UniProt Q92911); assay: inhibition of induced RAIU in hNIS-transduced F98 cells; type: cell-based
T1 construct: expressed in transfected cells; host or cells: F98 rat glioma cells infected with L-hNIS-SN recombinant retrovirus, G418-selected clone
T1 sequence (Q92911 1-643): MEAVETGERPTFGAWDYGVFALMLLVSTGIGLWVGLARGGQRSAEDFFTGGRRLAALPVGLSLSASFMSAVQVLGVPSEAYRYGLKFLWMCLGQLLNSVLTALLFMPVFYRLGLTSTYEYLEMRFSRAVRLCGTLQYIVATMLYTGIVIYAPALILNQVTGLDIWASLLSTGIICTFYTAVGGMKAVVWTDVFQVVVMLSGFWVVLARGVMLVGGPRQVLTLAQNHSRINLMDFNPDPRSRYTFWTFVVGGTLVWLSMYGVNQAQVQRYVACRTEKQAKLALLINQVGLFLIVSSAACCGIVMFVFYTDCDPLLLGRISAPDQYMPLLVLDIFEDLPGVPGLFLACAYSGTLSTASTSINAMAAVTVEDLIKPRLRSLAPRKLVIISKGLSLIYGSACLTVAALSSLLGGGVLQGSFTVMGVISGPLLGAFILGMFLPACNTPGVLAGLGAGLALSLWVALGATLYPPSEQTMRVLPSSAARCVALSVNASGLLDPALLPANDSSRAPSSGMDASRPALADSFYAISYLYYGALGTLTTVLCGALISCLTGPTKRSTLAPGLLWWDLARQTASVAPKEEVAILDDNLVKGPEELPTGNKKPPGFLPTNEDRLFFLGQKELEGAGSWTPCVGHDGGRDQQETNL
Description: NIS function in the hNIS-transduced F98 glioma cells was tested in vitro by radioiodide uptake assay^5 (RAIU). Cells (2×10^5 cells per well) were seeded in 24-well plates. At various times after seeding, the cells were incubated for 30 min at 37° C., 5.0% CO2 with growth media containing 2.0 μCi Na ^125I and 5-10 μM NaI carrier. The medium was aspirated and cells were quickly washed twice with ice-cold Hank's balanced salt solution (HBSS). Cells were then lysed by incubation with 95% ethanol. The radioactivity of the cell lysate was measured by a γ-counter (Packard Instruments, Downers Grove, Ill., USA). Experiments were performed in triplicate. The RAIU activity of the infected cells was expressed in terms of fold increase compared with that of mock-infected parental cells.

[4] = system: endogenous rat NIS in thyroid; assay: thyroid 99mTcO4 scintigraphy and NIS Western blot in rats fed T4-supplemented diet; type: in vivo
Description: Western blot analysis was performed as previously described.^23 Briefly, the tumors were removed from the animals and homogenized in a homogenizing buffer (10 mM Tris-HCl (pH 7.5), 5 mM NaCl, 1 mM EDTA, 0.1 mM PMSF, 50 μg/ml leupeptin) containing 0.25 M sucrose. The lysates were centrifuged at 700 g for 10 min at 4° C. The supernatants were further centrifuged at 200,000 g for 60-90 min at 4° C. to obtain membrane fractions, which were resuspended in homogenizing buffer without sucrose and kept at −80° C. until use. The membrane fractions ([…] per lane) were solubilized for 30 min at 37° C. in the same volume of reducing sample buffer (0.125 M Tris-HCl (pH 6.8), 4% SDS, 10% β-mercaptoethanol, 20% glycerol) and subjected to 4-20% gradient or 7.5% SDS-PAGE. The proteins were transferred on to a nitrocellulose filter which was then blocked with 5% nonfat dry mild in TBST buffer (10 mM Tris-HCl (pH 8.0), 150 mM NaCl, 0.1% Tween 20) at 4° C. overnight. […]
Rats fed a T4-supplemented diet were expected to have reduced RAIU in thyroid, as the endogenous NIS expression and activity in thyroid tissues is TSH-dependent. […] In comparison, thyroid was readily detectable by ^99mTcO4 scintigraphy in rats fed a normal diet. […]

[5] = F98/hNIS with 131I treatment group
[6] = F98/LXSN with 131I treatment group

[O]=[99Tc](=[O])(=[O])[O-] [99mTcO4]
99mTcO4 uptake in tumor (F98/hNIS gliomas [1]): intense
99mTcO4 uptake in tumor (parental F98 tumors): no ^99mTcO4 uptake was found

[123IH] [123I]
biological half-life of 123I [2]: greater than 20 hours
123I uptake in tumor (F98/hNIS gliomas [3]; F98/hNIS gliomas, by 37 hours post-injection): barely detectable
radioiodide uptake in tumor (F98/hNIS gliomas [3]; F98/hNIS gliomas, through 24 hrs post-injection): evident
biological half-life of 123I (F98/hNIS gliomas [3]; in F98/hNIS gliomas, from time activity curve, tail vein injection): 10 hours

[131IH] [131I]
average survival time (F98/hNIS tumors; F98/hNIS tumors with 131I treatment, 3 i.p. injections, total 12 mCi): 45 ± 8.6 days
prolongation of average survival time (F98/hNIS tumors; F98/hNIS with 131I compared to F98/LXSN with 131I, P<0.01): ~2 weeks
prolongation of average survival time (F98/hNIS tumors; F98/hNIS with 131I compared to F98/hNIS without 131I, P<0.05): 6 days
tumor size at sacrifice, length perpendicular to the longest length (F98/hNIS tumors; [5]): 6.1±1.5 mm
tumor size at sacrifice, longest length (F98/hNIS tumors; [5]): 8.5±1.9 mm
average survival time (F98/LXSN tumors; F98/LXSN tumors with 131I treatment, 3 i.p. injections, total 12 mCi): 30.4 ± 3.2 days
tumor size at sacrifice, length perpendicular to the longest length (F98/LXSN tumors; [6]): 6.4±1.6 mm
tumor size at sacrifice, longest length (F98/LXSN tumors; [6]): 8.7±1.6 mm

[O-][Cl+3]([O-])([O-])O [NaClO4, sodium perchlorate]
effect on induced RAIU (hNIS): suppressed; also recorded: inhibited

N[C@@H](Cc1cc(I)c(Oc2cc(I)c(O)c(I)c2)c(I)c1)C(=O)O [T4, thyroxine]
NIS glycoprotein in thyroid by Western blot ([4]; rats fed T4-supplemented diet): barely detected
thyroid detectability by 99mTcO4 scintigraphy ([4]; rats fed T4-supplemented diet for 11 days): not detectable
